Data: patent US6451833B1, “N-substituted (α-imidazolyl-toluyl)pyrrole compounds for treatment of circulatory disorders” (Pharmacia Corporation, priority 1991, dated 2002)

Experiments:
AII pressor response = assay: Assay C: In Vivo Intraduodenal Pressor Assay Response for AII Antagonists; design: species or system rat; settings: anesthetized Sprague-Dawley rats, 30 mg/kg i.d.; for Assay C Inhibition: inhibition of AII pressor response; for Assay C Duration: time from peak percent inhibition to 50% of peak
Experimental: Male Sprague-Dawley rats weighing 225-300 grams were anesthetized with Inactin (100 mg/kg, i.p.) and catheters were implanted into the trachea, femoral artery, femoral vein and duodenum. Arterial pressure was recorded from the femoral artery catheter on a Gould chart recorder (Gould, Cleveland, Ohio). The femoral vein catheter was used for injections of angiotensin II, mecamylamine and atropine. The tracheal catheter allows for airway patency, and the duodenal catheter was used for intraduodenal (i.d.) administration of test compounds. After surgery, the rats were allowed to equilibrate for 30 minutes. Mecamylamine (3 mg/kg, 0.3 ml/kg) and atropine (400 ug/kg, 0.3 ml/kg) were then given i.v. to produce ganglion blockade. These compounds were administered every 90 minutes throughout the test procedure. Angiotensin II was given in bolus doses i.v. (30 ng/kg in saline with 0.5% bovine serum albumin, 0.1 ml/kg) every 10 minutes three times or until the increase in arterial pressure produced was within 3 mmHg for two consecutive AII injections. The last two AII injections were averaged and were taken as the control AII pressor response. Ten minutes after the final control AII injection, the test compound (dissolved in sodium bicarbonate) was administered i.d. at a dose of 30 mg/kg in a volume of 0.2 ml. Angiotensin II injections were then given 5, 10, 20, 30, 45, 60, 75, 90, and 120 minutes after administration of the test compound and response of arterial pressure was monitored. The response to AII was calculated as percent of the control response and then the percent inhibition is calculated as 100 minus the percent control response. Duration of action of a test compound was defined as the time from peak percent inhibition to 50% of peak. One compound at one dose was tested in each rat. Each test compound was tested in two rats and the values for the two rats were averaged.

rabbit aortic rings = assay: Assay B: In Vitro Vascular Smooth Muscle Response for AII; settings: test antagonist at 10^-5 M, AII contraction
Experimental: The compounds of the invention were tested for antagonist activity in rabbit aortic rings. Male New Zealand white rabbits (2-2.5 kg) were sacrificed using an overdose of pentobarbital and exsanguinated via the carotid arteries. The thoracic aorta was removed, cleaned of adherent fat and connective tissue and then cut into 3-mm ring segments. The endothelium was removed from the rings by gently sliding a rolled-up piece of filter paper into the vessel lumen. The rings were then mounted in a water-jacketed tissue bath, maintained at 37° C., between moveable and fixed ends of a stainless steel wire with the moveable end attached to an FT03 Grass transducer coupled to a Model 7D Grass Polygraph for recording isometric force responses. […] The preparations were equilibrated for one hour before approximately one gram of passive tension was placed on the rings. Angiotensin II concentration-response curves were then recorded (3×10^−10 to 1×10^−5 M). Each concentration of AII was allowed to elicit its maximal contraction, and then AII was washed out repeatedly for 30 minutes before rechallenging with a higher concentration of AII. Aorta rings were exposed to the test antagonist at 10^−5 M for 5 minutes before challenging with AII. […] Each test antagonist was evaluated in aorta rings from two rabbits.

[1] = target: smooth muscle angiotensin II receptor; assay: Assay A: Angiotensin II Binding Activity; settings: displacement of 125I-AII, rat uterine membrane preparation
Experimental: Compounds of the invention were tested for ability to bind to the smooth muscle angiotensin II receptor using a rat uterine membrane preparation. […] Other chemicals were obtained from Sigma Chemical Co. This assay was carried out according to the method of Douglas et al [Endocrinology, 106, 120-124 (1980)]. Rat uterine membranes were prepared from fresh tissue. All procedures were carried out at 4° C. Uteri were stripped of fat and homogenized in phosphate-buffered saline at pH 7.4 containing 5 mM EDTA. The homogenate was centrifuged at 1500×g for 20 min., and the supernatant was recentrifuged at 100,000×g for 60 min. The pellet was resuspended in buffer consisting of 2 mM EDTA and 50 mM Tris-HCl (pH 7.5) to a final protein concentration of 4 mg/ml. […] The reaction was initiated by the addition of membrane protein and the mixture was incubated at 25° C. for 60 min. The incubation was terminated with ice-cold 50 mM Tris-HCl (pH 7.5) and the mixture was filtered to separate membrane-bound labelled peptide from the free ligand. The incubation tube and filter were washed with ice-cold buffer. Filters were assayed for radioactivity in a Micromedic gamma counter. […] Specific binding was calculated as total binding minus nonspecific binding. […] Binding data were analyzed by a nonlinear least-squares curve fitting program.

melting point | IC50 [1] | SMILES | Assay C Inhibition (AII pressor response) | Assay C Duration (AII pressor response) | Assay B pA2 (rabbit aortic rings)
181 to 182 °C | 5.8 µM | CCCCc1nc(Cl)c(Cl)n1Cc1ccc(-n2cccc2C(=O)O)cc1 [Example 1, 1-[4-[(2-n-Butyl-4,5-dichloro-imidazolyl)methyl]phenyl]-1H-pyrrole-2-carboxylic Acid] | 74% | 5 to 10 min | 5.6
– | – | CCCCc1nc(Cl)c(CO)n1Cc1ccc(-n2cccc2C(=O)O)cc1 [Example 2] | 92% | 20 to 30 min | –
180 to 181 °C | – | CCCCc1nc(CO)c(Cl)n1Cc1ccc(-n2cccc2C(=O)O)cc1 [Example 3] | – | – | –
